Test results taken from patent publication US12178879B2, “Hemiasterlin derivative and antibody-drug conjugate thereof” (priority 2019, dated 2024).

Tests used:
Karpas-299 cells [1] = assay: Cellular toxicity test (1), CellTiter-Glo; type: cell-based, human; conditions: 16 μg/mL solution added 50 μL per well, 4 days, relative to addition of no compound
Procedure: Karpas-299 cells were prepared to be 2×10^6 cells/mL in culture medium A, and were added to a 96 well microplate for cell culturing in an amount of 50 μL for each well. […] After culturing, the microplate was taken out from the incubator, and was left at rest at room temperature for 10 minutes. To each well, 50 μL of CellTiter-Glo Luminescent Cell Viability Assay (Promega) was added, and the resultant mixture was stirred.

porcine tubulin = biological target: T1, porcine tubulin (Sus scrofa, UniProt P02550+P02554); assay: Activity for inhibiting microtubule polymerization using porcine tubulins; type: biochemical; conditions: for Microtubule polymerization rate (%): at 9.1 μM, 60 minutes after assay initiation, absorbance at 340 nm, 37° C.; for activity for inhibiting microtubule polymerization (in words): summary of Test Example 3
T1 construct: purchased Cytoskeleton Inc. BK006P
Procedure: Using a tubulin polymerization inhibition assay kit (catalog number: BK006P) purchased from Cytoskeleton Inc., the polymerization inhibitory activity of compounds of Examples was evaluated in accordance with the protocol appended to the kit. To a 96 well microplate, 80 mM PIPES pH 6.9, 2 mM MgCl, 0.5 mM EGTA and 5% DMSO buffered solution of the compound to be evaluated was added in an amount of 10 μL for each well, and to these wells, 3 mg/mL porcine tubulin 80 mM PIPES pH 6.9, 2 mM MgCl, 0.5 mM EGTA, 1 mM GTP and 10.2% glycerol solution was added in an amount of 100 μL for each well. In order to examine a state in which tubulins polymerize over time, the absorbance at 340 nm was measured at 37° C., using a microplate reader. As the polymerization of tubulins progresses, the absorbance at 340 nm rises.
The tubulin polymerization inhibitory activity was evaluated based on the proportion of polymerized tubulins 60 minutes after the assay initiation. Specifically, the microtubule polymerization rate (%) was calculated by dividing the absorbance of tubulins that had polymerized at wells to which the compound had been added by the absorbance of tubulins that had polymerized at wells to which the compound had not been added, and multiplying the obtained value by 100.

Karpas-299 cells [2] = assay: Cellular toxicity test (2), CellTiter-Glo; type: cell-based, human; conditions: for Cell remaining rate (%): 0.25 μM solution added 50 μL per well, 4 days, relative to addition of no compound; for cellular toxicity (in words): summary of Test Example 2
Procedure: Karpas-299 cells (European Collection of Authenticated Cell Cultures, hereinafter, ECACC), which are CD30 antigen-expressing cell lines and human lymphoma cell lines, were cultured in RPMI 1640 (GIBCO) containing 10% fetal bovine serum (MP Biomedicals) (hereinafter, referred to as “culture medium A” in this test). Karpas-299 cells were prepared to be 2×10^6 cells/mL in culture medium A, and were added to a 96 well microplate for cell culturing in an amount of 50 μL for each well. Each compounds prepared to be in a concentration of 0.25 μM with culture medium A was added to the microplate in an amount of 50 μL for each well, and culture was carried out at 37° C. under 5% CO2 for 4 days. After culturing, the microplate was taken out from the incubator, and was left at rest at room temperature for 10 minutes. To each well, 50 μL of CellTiter-Glo Luminescent Cell Viability Assay (Promega) was added, and the resultant mixture was stirred. This mixture was incubated at a dark place for 20 minutes, and luminescence was measured by using a microplate luminometer, thereby determining the percentage of the number of cells remaining after treatment with each compound to the number of cells remaining after treatment with addition of no compound.

T1 sequence (P02550 whole entry): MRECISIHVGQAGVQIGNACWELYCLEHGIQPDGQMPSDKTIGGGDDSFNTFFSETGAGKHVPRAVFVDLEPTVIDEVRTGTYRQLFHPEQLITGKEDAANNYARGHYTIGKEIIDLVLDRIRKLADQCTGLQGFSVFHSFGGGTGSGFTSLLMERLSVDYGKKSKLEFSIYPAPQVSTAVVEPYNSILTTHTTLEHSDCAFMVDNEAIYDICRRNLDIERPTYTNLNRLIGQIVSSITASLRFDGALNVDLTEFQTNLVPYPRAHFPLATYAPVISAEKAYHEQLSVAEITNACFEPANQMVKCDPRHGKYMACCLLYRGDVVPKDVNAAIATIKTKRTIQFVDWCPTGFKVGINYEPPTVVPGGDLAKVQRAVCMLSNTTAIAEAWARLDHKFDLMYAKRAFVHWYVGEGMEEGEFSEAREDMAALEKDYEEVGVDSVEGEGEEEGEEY
T1 sequence (P02554 whole entry): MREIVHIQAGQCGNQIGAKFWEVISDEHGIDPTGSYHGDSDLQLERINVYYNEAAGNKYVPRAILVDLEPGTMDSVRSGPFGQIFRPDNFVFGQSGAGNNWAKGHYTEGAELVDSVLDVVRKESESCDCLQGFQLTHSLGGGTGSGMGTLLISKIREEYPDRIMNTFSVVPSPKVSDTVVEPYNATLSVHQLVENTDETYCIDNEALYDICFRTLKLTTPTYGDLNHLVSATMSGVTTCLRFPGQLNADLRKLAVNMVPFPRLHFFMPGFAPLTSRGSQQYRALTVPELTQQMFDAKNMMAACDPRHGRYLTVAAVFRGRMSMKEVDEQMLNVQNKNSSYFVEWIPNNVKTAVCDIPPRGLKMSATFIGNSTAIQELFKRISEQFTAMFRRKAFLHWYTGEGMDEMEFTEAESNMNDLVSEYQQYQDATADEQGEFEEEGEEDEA

| Compound | Cell remaining rate (%) (Karpas-299 cells [1]) | Microtubule polymerization rate (%) (porcine tubulin) | activity for inhibiting microtubule polymerization (in words) (porcine tubulin) | Cell remaining rate (%) (Karpas-299 cells [2]) | cellular toxicity (in words) (Karpas-299 cells [2]) |
| --- | --- | --- | --- | --- | --- |
| Brentuximab | 71.5 | – | – | – | – |
| CN[C@H](C(=O)N[C@H](C(=O)N(C)[C@H](/C=C(\C)C(=O)NCCCCNC(=O)CCCCCN1C(=O)CC(SC[C@H](N)C(=O)O)C1=O)C(C)C)C(C)(C)C)C(C)(C)c1cn(C)c2ccccc12 (stereo partly drawn) [Comparative Example compound, reference compound] | – | 0 | comparable activities for inhibiting microtubule polymerization | 18.1 | strong cellular toxicity |
| CN[C@H](C(=O)N[C@H](C(=O)N(C)[C@H](/C=C(\C)C(=O)N[C@H](CCC(=O)NCCCC[C@H](N)C(=O)O)C(=O)O)C(C)C)C(C)(C)C)C(C)(C)c1ccccc1 [Metabolite of Example ADC1] | – | 1.7 | comparable activities for inhibiting microtubule polymerization | 100 | weak cytotoxic activity |
